These results are taken from US9682033B2, “Methods of treating postherpetic neuralgia with a topical formulation of a spiro-oxindole compound” (Teva Pharmaceuticals International GmbH, priority 2015, dated 2017).

Data set [1] deals with streptozotocin-induced neuropathic pain model. Nature of the data set: Streptozotocin-induced neuropathic pain model, mechanical allodynia (paw withdrawal threshold). As to conditions: rats, topical, 30 minutes after the dose. It counts as in vivo, rats. From the text: Topical 4% Test Pharmaceutical Composition was compared with lidocaine and diclofenac for relief of mechanical allodynia in the streptozotocin-induced neuropathic pain model in rats.

The target in another data set is CYP3A4 (Homo sapiens, UniProt P08684). Briefly: Drug-drug interaction study in healthy subjects: midazolam (CYP3A4 substrate) pharmacokinetics (Biological Example 5). The note with it: for Tmax / AUC(0-inf) / AUC(0-t) / Cmax: both, human, in vivo; for AUC(0-inf) / AUC(0-t) / Cmax: 3 mg. The source says:
(§1) This was a single center, open-label, 1-sequence drug-drug interaction study in 32 healthy adult male and female subjects. The study consisted of a 28-day screening period, a 10-day inpatient treatment period, and a follow-up visit. Subjects meeting the study inclusion/exclusion requirements were admitted to the clinical research unit on day −1 and were confined until day 10.
(§2) Blood samples were collected for the assessment of the pharmacokinetics of midazolam and omeprazole.
(§3) The primary pharmacokinetic endpoints were the geometric mean ratios (90% confidence intervals [CIs]) for Cmax, AUC0-t, and AUC0-inf for midazolam and omeprazole on day 9 versus day 1.
(§4) Blood samples were collected for the assessment of the pharmacokinetics of the major metabolites of midazolam (1-OH-midazolam) and omeprazole (5-OH-omeprazole), and for the spiro-oxindole compound. Further secondary pharmacokinetic variables included Cmax, tmax, AUC0-t, AUC0-inf, CL/F, λz, t1/2, and % AUCext for 1-OH-midazolam and 5-OH-omeprazole, on days 1 and 9, and Cmax, morning predose concentrations (Ctrough), average plasma concentration over the dosing interval (Cave), and area under the plasma concentration-time curve over the dosing interval (AUC0-τ) were presented for the spiro-oxindole compound.
(§5) Descriptive statistics (n, mean, geometric mean, standard deviation [SD], % CV, median, minimum, and maximum) were used to summarize plasma midazolam, omeprazole and their metabolites, and the spiro-oxindole compound concentration for all subjects overall at each scheduled time point. Descriptive statistics (as noted above) were also used to summarize plasma omeprazole, 5-OH-omeprazole, and the spiro-oxindole compound concentration for all subjects overall by CYP2C19 genotype at each scheduled time point. Pharmacokinetic parameters were derived by noncompartmental analysis. Descriptive statistics (as noted above) were used to summarize the calculated pharmacokinetic parameters for midazolam, omeprazole and their metabolites, and the spiro-oxindole compound by treatment for all subjects. Descriptive statistics (as noted above) were also used to summarize the calculated pharmacokinetic parameters for omeprazole, 5-OH-omeprazole, and the spiro-oxindole compound by treatment and CYP2C19 genotype. Plots of geometric mean and individual plasma concentrations and of select pharmacokinetic parameters for midazolam, omeprazole and their metabolites and the spiro-oxindole compound at select sampling times were provided. Additionally, plots of individual select pharmacokinetic parameters by CYP2C19 phenotype for omeprazole at select time points were provided.

For the next data set, the system named is CYP2C19. Briefly: clinical. As to conditions: both, human, in vivo, 20 mg.
Source text: as §1, §2, §3, §4, §5

The mark [2] stands for this setting: 1-OH metabolite after oral midazolam, day 1.
The mark [3] stands for this setting: 1-OH metabolite after oral midazolam, day 9.

CYP3A4, sequence (P08684 whole entry): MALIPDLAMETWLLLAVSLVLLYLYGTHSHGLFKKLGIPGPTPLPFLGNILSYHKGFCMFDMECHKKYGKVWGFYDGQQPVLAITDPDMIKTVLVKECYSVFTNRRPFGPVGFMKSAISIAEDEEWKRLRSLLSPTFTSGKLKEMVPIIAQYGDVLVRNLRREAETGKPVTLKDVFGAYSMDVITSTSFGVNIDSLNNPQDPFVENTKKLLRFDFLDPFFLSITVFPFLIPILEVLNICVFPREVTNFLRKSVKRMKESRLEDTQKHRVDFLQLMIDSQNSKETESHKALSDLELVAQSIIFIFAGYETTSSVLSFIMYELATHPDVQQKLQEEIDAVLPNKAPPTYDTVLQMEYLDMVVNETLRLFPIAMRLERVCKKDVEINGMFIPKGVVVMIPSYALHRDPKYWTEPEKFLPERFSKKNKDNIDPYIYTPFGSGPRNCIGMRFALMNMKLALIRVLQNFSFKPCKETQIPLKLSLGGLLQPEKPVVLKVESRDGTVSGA

As to `O=C(O)Cc1ccccc1Nc1c(Cl)cccc1Cl` [diclofenac], in data set [1], the “paw withdrawal threshold for the drug-treated paw (mechanical hyperalgesia)” value is reported as “no significant increase in threshold”.

With `Cc1ncc2n1-c1ccc(Cl)cc1C(c1ccccc1F)=NC2` [midazolam, reference compound], at CYP3A4, the Tmax (as a rule, the time at which the peak concentration occurs) came to 0.75 h; the area under the curve AUC(0-inf) – broadly, total exposure, with the tail of the curve extrapolated – came to 40.7 ng·h/mL; the AUC(0-t) (in general, the area under the concentration-time curve up to a stated or last time point) stood at 39.4 ng·h/mL; the Cmax (in general, the highest concentration seen after dosing) came out at 14.6 ng/mL. Moreover, at CYP3A4 (po), the time of peak concentration (Tmax) was found to be 0.63 h, the AUC(0-inf) worked out at 43.8 ng·h/mL, the AUC(0-t) turned out to be 42.2 ng·h/mL and the peak level (Cmax) was 16.9 ng/mL.

For `COc1ccc2[nH]c([S+]([O-])Cc3ncc(C)c(OC)c3C)nc2c1` (centres unmarked) [omeprazole], the Tmax with CYP2C19 is 2.5 h. Also, in the data set on CYP2C19 (po), the “AUC0-inf (geometric mean)” value was 633.97 ng·h/mL, the “AUC0-t (geometric mean)” value amounted to 556.16 ng·h/mL, the “Cmax (geometric mean)” value is listed as 227.04 ng/mL and the Tmax was found to be 2 h. The compound further had an area under the curve AUC(0-inf) in the data set with CYP2C19 (po, AUC0-inf (geometric mean)) of 635 ng·h/mL. The same compound returned an AUC(0-t) in the data set on CYP2C19 (po, AUC0-t (geometric mean)) of 545 ng·h/mL. This compound also yielded a Cmax with CYP2C19 (po, Cmax (geometric mean)) of 227 ng/mL.

`OCc1ncc2n1-c1ccc(Cl)cc1C(c1ccccc1F)=NC2` [1-OH-midazolam]: at CYP3A4 (1-OH metabolite after oral midazolam, both days 1 and 9), the “tmax (median)” value stood at 0.75 h. At CYP3A4 (setting [2]), the “AUC0-inf (geometric)” value is 16.83 ng·h/mL, the “AUC0-t (geometric)” value turned out to be 15.82 ng·h/mL, the “Cmax (geometric mean)” value stood at 7.33 ng/mL and the “t1/2 (geometric mean)” value was found to be 4.39 h. Moreover, at CYP3A4 (setting [3]), the “AUC0-t (geometric)” value was 17.18 ng·h/mL, the “Cmax (geometric mean)” value is on record as 6.67 ng/mL and the “t1/2 (geometric mean)” value is 4.68 h.

Consider `CCN(CC)CC(=O)Nc1c(C)cccc1C` [lidocaine], for which the “paw withdrawal threshold for the drug-treated paw (mechanical hyperalgesia)” value in data set [1] is reported as “no significant increase in threshold”.
